Experimental data taken from ChEMBL document CHEMBL1158885, “A new sesquiterpenoid quinone and other related compounds from the Okinawan marine sponge Dactylospongia elegans” (J Nat Prod, 2003).

Test system: HeLa
Experiment: Cytotoxicity against human HeLa cells
Format: functional, cell-based

How did the IC50 turn out when C=C1CCC[C@H]2[C@]3(C)OC4=C(C[C@]3(C)CC[C@]12C)C(=O)C(OC)=CC4=O [NEODACTYLOQUINONE] was run?
Its IC50 is 86 µM.
